How the values were obtained:
[1] = test system: T. gondii β-gal tachyzoites; experiment: Dose-response study (IC50) against T. gondii β-gal tachyzoites; format: cell-based, Toxoplasma gondii; conditions: 8 serial concentrations 0.007-1 µM, 72 h
Description: (§1) The screening cascade for the compounds was described in former studies. All compounds were prepared as 1 mM stock solutions from powder, in dimethyl sulfoxide (DMSO, Sigma, St. Louis, MO, USA). For in vitro activity and cytotoxicity assays, HFF were seeded at 5 × 10^3/well and allowed to grow to confluence in phenol-red free culture medium at 37 °C and 5% CO2. T. gondii tachyzoites were released from host cells, and HFF monolayers were infected with freshly isolated parasites (1 × 10^3/well), and compounds were added concomitantly with infection.
For the dose-response study (IC50 values), measurements for T. gondii β-gal were performed. The selected compounds were added concomitantly with infection in 8 serial concentrations 0.007, 0.01, 0.03, 0.06, 0.12, 0.25, 0.5, and 1 μM.
(§2) To measure the activity of the tested compound on T. gondii β-gal parasites, after a period of 72 h of culture at 37 °C/5% CO2, the culture medium was aspirated, and cells were permeabilized by adding 90 μL PBS (phosphate buffered saline) with 0.05% Triton X-100. Next, 10 μL of 5 mM chlorophenolred-β-D-galactopyranoside (CPRG; Roche Diagnostics, Rotkreuz, Switzerland, substrate for the β-galactosidase) in PBS were added. Release of chlorophenol red was measured at 570 nm using an EnSpire® multimode plate reader (PerkinElmer, Inc., Waltham, MA, USA). A 100% proliferation of T. gondii β-gal was assigned to control parasites treated only with DMSO. For the primary screening at 0.1 and 1 μM, the activity was measured as the release of chlorophenol red over time and was calculated as percentage from the respective DMSO treated control, which represented 100% of T. gondii β-gal growth.
For the IC50 assays, the activity measured as the release of chlorophenol red over time was proportional to the number of live parasites down to 50 per well as determined in pilot assays. IC50 values were calculated after the logit-log-transformation of relative growth and subsequent regression analysis. All calculations were performed using the corresponding software tool contained in the Excel software package (Microsoft, Redmond, WA, USA).

[2] = test system: T. gondii β-gal tachyzoites; experiment: Primary screening: T. gondii β-gal proliferation in HFF monolayers at 0.1 and 1 µM (CPRG readout); format: cell-based, Toxoplasma gondii; conditions: tachyzoites cultured in HFF, 72 h, relative to DMSO control
Description: as §1
In the primary screening, HFF monolayers infected with T. gondii β-gal were treated with 0.1 and 1 µM of each compound, or the corresponding concentration of DMSO (0.01 or 0.1%, respectively) as controls and were incubated for 72 h at 37 °C/5% CO2 as previously described.
as §2

[3] = test system: human foreskin fibroblasts (HFF); experiment: Cytotoxicity in non-infected HFF by alamarBlue assay; format: cell-based
Description: as §1
Cytotoxicity assays using uninfected confluent HFF host cells were performed by the alamarBlue assay as previously reported. Confluent HFF monolayers in 96 well-plates were exposed to 0.1, 1, and 2.5 μM of each compound. Non-treated HFF as well as DMSO controls (0.01%, 0.1%, and 0.25%) were included. After 72 h of incubation at 37 °C/5% CO2, the medium was removed, and the plates were washed once with PBS. Resazurin suspended in PBS to a final concentration of 0.01 g/L was added to each well (200 μL/well). Fluorescence was measured at excitation wavelength 530 nm and emission wavelength […] using an EnSpire® multimode plate reader (PerkinElmer, Inc, Waltham, MA, USA). The cytotoxicity values were calculated as percentage of the respective DMSO control, which represented 100% of HFF viability.

[4] = 0.1 µM, non-infected HFF, 72 h, relative to DMSO control, triplicate
[5] = 2.5 µM, control 0.25% DMSO = 100%, six replicates

Compound: C#CCCCC(=O)Nc1ccc([S+]2[Ru-]3[S+](Cc4ccc(C(C)(C)C)cc4)[Ru-]2[S+]3Cc2ccc(C(C)(C)C)cc2)cc1.Cc1ccc(C(C)C)cc1.Cc1ccc(C(C)C)cc1.[Cl-] (stereo not drawn) [Compound 5]
- IC50 [1]: 0.038 µM
- T. gondii β-gal Growth (%) ([2]; 0.1 µM): 21 ± 2%
- T. gondii β-gal Growth (%) ([2]; 1 µM): 0 ± 0%
- HFF Viability (%) [3, 4]: 101 ± 0%
- HFF Viability (%) [3, 5]: 34%

Compound: C#Cc1ccc(C(=O)Nc2ccc([S+]3[Ru-]4[S+](Cc5ccc(C(C)(C)C)cc5)[Ru-]3[S+]4Cc3ccc(C(C)(C)C)cc3)cc2)cc1.Cc1ccc(C(C)C)cc1.Cc1ccc(C(C)C)cc1.[Cl-] (stereo not drawn) [Compound 6]
- IC50 [1]: 0.288 µM
- T. gondii β-gal Growth (%) ([2]; 0.1 µM): 112 ± 1%
- T. gondii β-gal Growth (%) ([2]; 1 µM): 6 ± 1%
- HFF Viability (%) [3, 4]: 95 ± 1%
- HFF Viability (%) [3, 5]: 17%

Compound: C#CCOC(=O)Cc1ccc([S+]2[Ru-]3[S+](Cc4ccc(C(C)(C)C)cc4)[Ru-]2[S+]3Cc2ccc(C(C)(C)C)cc2)cc1.Cc1ccc(C(C)C)cc1.Cc1ccc(C(C)C)cc1.[Cl-] (stereo not drawn) [Compound 7]
- IC50 [1]: 0.289 µM
- T. gondii β-gal Growth (%) ([2]; 0.1 µM): 19 ± 1%
- T. gondii β-gal Growth (%) ([2]; 1 µM): 0 ± 0%
- HFF Viability (%) [3, 4]: 100 ± 2%
- HFF Viability (%) [3, 5]: 51%

Compound: CC(C)(C)c1ccc(C[S+]2[Ru-]3[S+](Cc4ccc(C(C)(C)C)cc4)[Ru-]2[S+]3c2ccccc2CN=[N+]=[N-])cc1.Cc1ccc(C(C)C)cc1.Cc1ccc(C(C)C)cc1.[Cl-] (stereo not drawn) [Compound 9]
- IC50 [1]: 0.048 µM
- T. gondii β-gal Growth (%) ([2]; 1 µM): 1 ± 1%
- HFF Viability (%) [3, 4]: 96 ± 1%
- HFF Viability (%) [3, 5]: 11%

Compound: CC(C)(C)c1ccc(C[S+]2[Ru-]3[S+](Cc4ccc(C(C)(C)C)cc4)[Ru-]2[S+]3c2ccc(N=[N+]=[N-])cc2)cc1.Cc1ccc(C(C)C)cc1.Cc1ccc(C(C)C)cc1.[Cl-] (stereo not drawn) [Compound 10]
- IC50 [1]: 0.064 µM
- T. gondii β-gal Growth (%) ([2]; 1 µM): 1 ± 0%
- HFF Viability (%) [3, 4]: 94 ± 1%
- HFF Viability (%) [3, 5]: 38%

Compound: Nc1ncnc2c1ncn2CCO [Compound 14A, 9-(2-hydroxyethyl)adenine]
- T. gondii β-gal Growth (%) ([2]; 0.1 µM): 104 ± 2%
- T. gondii β-gal Growth (%) ([2]; 1 µM): 75 ± 11%

Compound: CC(C)(C)c1ccc(C[S+]2[Ru-]3[S+](Cc4ccc(C(C)(C)C)cc4)[Ru-]2[S+]3c2ccccc2Cn2cc(Cn3ccc(=O)[nH]c3=O)nn2)cc1.Cc1ccc(C(C)C)cc1.Cc1ccc(C(C)C)cc1.[Cl-] (stereo not drawn) [Compound 19]
- IC50 [1]: 0.46 µM
- HFF Viability (%) [3, 4]: 93 ± 2%
- HFF Viability (%) [3, 5]: 50%

Compound: Cc1ccc(C(C)C)cc1.Cc1ccc(C(C)C)cc1.Cc1cn(Cc2cn(Cc3ccccc3[S+]3[Ru-]4[S+](Cc5ccc(C(C)(C)C)cc5)[Ru-]3[S+]4Cc3ccc(C(C)(C)C)cc3)nn2)c(=O)[nH]c1=O.[Cl-] (stereo not drawn) [Compound 20]
- IC50 [1]: 0.363 µM
- T. gondii β-gal Growth (%) ([2]; 0.1 µM): 102 ± 0%
- T. gondii β-gal Growth (%) ([2]; 1 µM): 1 ± 0%
- HFF Viability (%) ([3]; 0.1 µM): 100 ± 2%
- HFF Viability (%) ([3]; 1 µM): 71 ± 2%
- HFF Viability (%) ([3]; 2.5 µM): 39%

Compound: CC(C)(C)c1ccc(C[S]2[Ru]3[S](Cc4ccc(C(C)(C)C)cc4)[Ru+]2[S]3c2ccccc2Cn2cc(Cn3ccc(N)nc3=O)nn2)cc1.Cc1ccc(C(C)C)cc1.Cc1ccc(C(C)C)cc1.[Cl-] [Compound 21]
- IC50 [1]: 0.046 µM
- T. gondii β-gal Growth (%) ([2]; 1 µM): 0 ± 0%
- HFF Viability (%) ([3]; 0.1 µM): 109 ± 2%
- HFF Viability (%) ([3]; 1 µM): 89 ± 1%
- HFF Viability (%) ([3]; 2.5 µM): 38%

Compound: CC(C)(C)c1ccc(C[S]2[Ru]3[S](Cc4ccc(C(C)(C)C)cc4)[Ru+]2[S]3c2ccccc2Cn2cc(Cn3cnc4c(N)ncnc43)nn2)cc1.Cc1ccc(C(C)C)cc1.Cc1ccc(C(C)C)cc1.[Cl-] [Compound 22]
- IC50 [1]: 0.108 µM
- T. gondii β-gal Growth (%) ([2]; 0.1 µM): 79 ± 3%
- T. gondii β-gal Growth (%) ([2]; 1 µM): 1 ± 0%
- HFF Viability (%) ([3]; 0.1 µM): 102 ± 0%
- HFF Viability (%) ([3]; 1 µM): 77 ± 2%
- HFF Viability (%) ([3]; 2.5 µM): 52%

From article PMC9738179, “New Nucleic Base-Tethered Trithiolato-Bridged Dinuclear Ruthenium(II)-Arene Compounds: Synthesis and Antiparasitic Activity” (Molecules, 2022)
